The source of these data is article PMC5477036, “Design and synthesis of biphenyl and biphenyl ether inhibitors of sulfatases” (Chemical Science, 2016).

What all share (assay type): biochemical
In one test the target is T1, Sulf-2 (Homo sapiens, UniProt Q8IWU5).
T1 construct: host or cells: 293T cells, transiently transfected
Briefly: Inhibition of Sulf-2-catalysed desulfation of 4-MUS to fluorescent MU. Particulars: for inhibition at 1000 µM: 1 mM compound, 4-MUS substrate, means of two or more determinations, read-out: Sulf-2% inh @ 1 mM; for IC50: non-linear regression, 7 inhibitor concentrations in duplicate, mean ± SEM. Here is the method:
(§1) Compounds were assayed for their ability to inhibit the Sulf-2-catalysed desulfation of 4-methylumbelliferyl sulfate (4-MUS) to the fluorescent 4-methylumbelliferone (MU). To determine their sulfatase selectivity, inhibition of aryl sulfatases A (ARSA) and B (ARSB) was also assessed. To date no suitable benchmark inhibitors of these sulfatase have been reported. […] In the majority of cases the presence of a substituent on the B-ring was detrimental to Sulf-2 inhibition when compared with unsubstituted biphenyl sulfamate 76. Aminosulfates 54 and 62 and carboxylic acid 15 retained potency. […] Compounds 8, 10, 15, 50 and 51 were also relatively potent ARSA inhibitors. […] Aminosulfates 56 and 63 were the best Sulf-2 inhibitors lacking a trichloroethylsulfamate group.
1 – Biological assay protocols
Compounds were screened using 4-MUS as a substrate for Sulf-2 according to a protocol described by Morimoto-Tomita et al.1 Briefly 293T cells were transiently transfected with pcDNA3.1/Myc-His(-)-HSulf-2 DNA (Addgene) and TransIT-LT1 Transfection Reagent (Mirus) using a transfection mixture at the ratio 1:3 (µg DNA:
µL transfection reagent) in Opti-MEM I reduced serum medium (Gibco). Conditioned medium containing Sulf-2 was collected after 3 days and bound to HIS-Select Nickel affinity gel (Sigma) overnight at 4 °C. Beads were washed three times with washing buffer containing 50 mM HEPES (pH 7.5), 300 mM NaCl, 0.05% Tween 20, followed by washing once with washing buffer containing no tween. Beads were suspended in 50 mM Hepes (pH 7.5) and used in inhibition assays. 20 μL of bead slurry was incubated with 1 mM compound (in DMSO) plus 10X reaction buffer (500 mM HEPES pH 7.5, 100 mM CaCl2) for 1 h at 37 °C. The reaction was started by the addition of 20 μL of 20 mM 4-MUS (final concentration of 8 mM) and incubated at 37 °C for 1 h. The reaction was stopped with 100 μL 1 M Tris buffer (pH 10.4) and read at 460 nm following excitation at 355 nm in FLUOstar Omega plate reader (BMG Labtech) using Omega data analysis software. […]

The target of a further test is T2, aryl sulfatase A (ARSA) (Homo sapiens, UniProt P15289).
T2 construct: purchased R & D Systems
T2 sequence (P15289 19-507): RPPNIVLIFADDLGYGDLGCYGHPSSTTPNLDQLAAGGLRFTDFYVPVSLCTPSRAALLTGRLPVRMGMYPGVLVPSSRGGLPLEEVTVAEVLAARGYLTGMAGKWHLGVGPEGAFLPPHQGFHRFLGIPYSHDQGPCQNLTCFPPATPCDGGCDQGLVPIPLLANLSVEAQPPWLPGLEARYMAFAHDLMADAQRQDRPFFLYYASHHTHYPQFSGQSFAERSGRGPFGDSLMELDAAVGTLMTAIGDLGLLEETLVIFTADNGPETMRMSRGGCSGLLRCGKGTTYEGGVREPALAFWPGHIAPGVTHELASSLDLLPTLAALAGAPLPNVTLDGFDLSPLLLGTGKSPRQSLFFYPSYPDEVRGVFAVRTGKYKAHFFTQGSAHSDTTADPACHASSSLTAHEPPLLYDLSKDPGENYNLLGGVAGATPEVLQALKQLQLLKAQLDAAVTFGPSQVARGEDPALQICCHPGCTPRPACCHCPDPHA
Briefly: ARSA inhibition assay with 4-MUS substrate. Conditions: for inhibition at 1000 µM: 1 mM compound, 4-MUS substrate, means of two or more determinations, read-out: ARSA% inh @ 1 mM. Here is the method: as §1
(§2) 1 – Biological assay protocols […]
(§3) Omega data analysis software.
(§4) ARSA and ARSB assay protocols
(§5) Compounds were screened in a 96-well black plate (Sterilin) using 4-MUS as a substrate, using 50 μL reaction mixture containing 40 ng of the commercially available enzymes (ARSA or ARSB from R & D Systems), 50 mM HEPES (pH = 4.5), 10 mM CaCl2, 1 mM test compound (dissolved in DMSO; final concentration of DMSO in reaction = 2%), and H2O (45 μL). The assay mixture was incubated for 1 h at 37 °C, followed by addition of 5 μL of 4-MUS (Km = 1.6 mM for ARSA and 612 μM for ARSB), and incubation for a further 1 h at 37 °C. The reaction was stopped with 100 μL of 1 M Tris (pH = 10.5) and read at 460 nm following excitation at 355 nm in FLUOstar Omega plate reader (BMG Labtech) using Omega data analysis software.

For another test, the target named is T3, aryl sulfatase B (ARSB) (Homo sapiens, UniProt P15848).
T3 construct: purchased R & D Systems
T3 sequence (P15848 37-533, species assumed): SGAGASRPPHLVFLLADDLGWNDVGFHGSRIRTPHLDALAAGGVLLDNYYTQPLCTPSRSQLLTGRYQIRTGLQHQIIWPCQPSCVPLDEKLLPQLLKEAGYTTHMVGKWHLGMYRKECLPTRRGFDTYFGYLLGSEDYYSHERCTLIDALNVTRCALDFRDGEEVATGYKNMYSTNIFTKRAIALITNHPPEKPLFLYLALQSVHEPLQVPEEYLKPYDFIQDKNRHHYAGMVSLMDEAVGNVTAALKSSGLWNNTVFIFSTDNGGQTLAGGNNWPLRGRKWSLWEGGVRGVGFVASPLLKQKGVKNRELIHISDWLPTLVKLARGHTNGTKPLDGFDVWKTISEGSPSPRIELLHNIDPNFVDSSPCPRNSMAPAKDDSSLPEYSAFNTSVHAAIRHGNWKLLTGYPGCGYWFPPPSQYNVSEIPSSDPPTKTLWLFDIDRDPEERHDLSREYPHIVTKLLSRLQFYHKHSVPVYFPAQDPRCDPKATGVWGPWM
As to the kind of experiment: ARSB inhibition assay with 4-MUS substrate. Conditions: for inhibition at 1000 µM: 1 mM compound, 4-MUS substrate, means of two or more determinations, read-out: ARSB% inh @ 1 mM; for IC50: non-linear regression, 7 inhibitor concentrations in duplicate, mean ± SEM. The protocol: as §1, §2, §3, §4, §5

T1 sequence (Q8IWU5 25-870): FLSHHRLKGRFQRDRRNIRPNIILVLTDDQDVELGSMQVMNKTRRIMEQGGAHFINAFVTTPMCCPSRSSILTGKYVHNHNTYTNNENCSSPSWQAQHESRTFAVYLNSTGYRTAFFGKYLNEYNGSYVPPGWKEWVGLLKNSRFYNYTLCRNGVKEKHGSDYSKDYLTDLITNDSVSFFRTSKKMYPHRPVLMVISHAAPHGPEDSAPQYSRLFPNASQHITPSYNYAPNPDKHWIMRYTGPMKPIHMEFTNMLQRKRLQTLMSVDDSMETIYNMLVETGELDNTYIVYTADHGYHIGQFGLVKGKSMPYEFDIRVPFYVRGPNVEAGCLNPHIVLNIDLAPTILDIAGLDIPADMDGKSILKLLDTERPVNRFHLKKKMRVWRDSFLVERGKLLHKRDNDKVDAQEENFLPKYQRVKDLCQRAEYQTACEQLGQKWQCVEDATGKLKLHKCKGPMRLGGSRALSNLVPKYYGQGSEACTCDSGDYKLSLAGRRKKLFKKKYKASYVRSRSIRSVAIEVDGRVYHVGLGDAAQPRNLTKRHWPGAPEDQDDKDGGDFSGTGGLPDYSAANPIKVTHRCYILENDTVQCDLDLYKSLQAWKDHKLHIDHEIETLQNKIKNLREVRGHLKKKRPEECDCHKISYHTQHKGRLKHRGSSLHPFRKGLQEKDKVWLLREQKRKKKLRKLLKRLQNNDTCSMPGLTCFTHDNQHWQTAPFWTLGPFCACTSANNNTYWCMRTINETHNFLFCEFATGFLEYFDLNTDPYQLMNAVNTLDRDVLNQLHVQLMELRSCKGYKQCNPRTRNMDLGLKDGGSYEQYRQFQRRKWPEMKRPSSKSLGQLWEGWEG

Regarding `NS(=O)(=O)Oc1cccc(Oc2cccc(C(=O)O)c2)c1` [Compound 74], the results for the inhibition at 1000 µM on Sulf-2, at aryl sulfatase A (ARSA) and on aryl sulfatase B (ARSB) were 30%, 49% and 0%, respectively.

On to `NS(=O)(=O)Oc1cccc(Oc2ccc(C(=O)O)cc2)c1` [Compound 75], for which the inhibition at 1000 µM was 23% on Sulf-2, 33% on aryl sulfatase A (ARSA) and 0% on aryl sulfatase B (ARSB).

In the case of `NS(=O)(=O)Oc1cccc(-c2ccccc2)c1` [Compound 76], the inhibition at 1000 µM was 38% on Sulf-2, 14% on aryl sulfatase A (ARSA) and 65% at aryl sulfatase B (ARSB).

In the case of `O=S(=O)(Nc1cccc(-c2ccccc2)c1)OCC(Cl)(Cl)Cl` [Compound 79], the inhibition at 1000 µM on Sulf-2 was 100%; on aryl sulfatase A (ARSA), 0%; on aryl sulfatase B (ARSB), 61%. The IC50 (usually the concentration that gives 50% inhibition) against Sulf-2 was 254 ± 3 µM; against aryl sulfatase B (ARSB) it was 30 ± 11 µM. Moreover, on aryl sulfatase A (ARSA) (non-linear regression, 7 inhibitor concentrations in duplicate, mean ± SEM), the “ARSA IC50” value is “No inhibition”.

As to `O=S(=O)(Nc1cccc(Oc2ccccc2)c1)OCC(Cl)(Cl)Cl` [Compound 80], the inhibition at 1000 µM on Sulf-2 was determined as 99%; on aryl sulfatase A (ARSA), 74%; on aryl sulfatase B (ARSB) it was 99%. The IC50 worked out at 298 ± 3 µM against Sulf-2 and 34 ± 9 µM against aryl sulfatase B (ARSB). Besides, the “ARSA inhibition over concentration range” value on aryl sulfatase A (ARSA) (concentration range 0.025–1 mM, IC50 could not be determined) is recorded as “Concentration-dependent inhibition was not observed”.

Take `O=S(=O)(OCC(Cl)(Cl)Cl)Oc1cccc(-c2ccccc2)c1` [Compound 81]: the inhibition at 1000 µM at Sulf-2 was found to be 1%; on aryl sulfatase A (ARSA) it was 70%; on aryl sulfatase B (ARSB), 85%.

In the case of `O=S(=O)(Nc1cccc(-c2ccccc2)c1)OCC(F)(F)F` [Compound 82], the inhibition at 1000 µM at Sulf-2 was 5%; at aryl sulfatase A (ARSA) it was 78%; on aryl sulfatase B (ARSB) it was 92%.

With `O=S(=O)(Nc1ccccc1)OCC(Cl)(Cl)Cl` [Compound 83], the inhibition at 1000 µM on Sulf-2 amounted to 3%; at aryl sulfatase A (ARSA), 63%; at aryl sulfatase B (ARSB), 68%.
